Measurements published in PubChem BioAssay AID1963426 (Molecular Pharmacology Branch, DTP, NCI, 2024).

Test system: 186277-243-T-J2-PDC complex spheroid growth, % test/control
Test: Anticancer human tumor 186277-243-T-J2-PDC patient-derived colon adenocarcinoma cell line growth inhibition [Asc]
Settings: for IC50: curve of first compound; for viability, T/C: stronger effect = lower value
Method: Multicellular complex tumor spheroid response to apoptosis pathway targeting inhibitors Alrizomadlin, Pelcitoclax, and Dasminapant in combination with a variety of drugs and investigational agents in selected tumor cell lines
The MDM2 inhibitor alrizomadlin, the Bcl-2/Bcl-xL inhibitor pelcitoclax, and the IAPs inhibitor dasminapant were evaluated both individually and in combination with standard of care and investigational anticancer small molecules within a complex spheroid model of solid tumors. . Complex spheroids include a stromal component modeled by human endothelial cells (HUVEC) and fibroblasts modeled by human mesenchymal stem cells (MSCs). The concentration ranges selected for each drug and investigational agent were based upon clinically achievable concentrations if the clinical Cmax of the agent was known.
Compounds. The drugs and investigational agents: alrizomadlin (APG-115; NSC831270), pelcitoclax (APG-1252; NSC835773), dasminapant (APG-1387;NSC834197), TAK-243 (NSC785004), copanlisib (NSC809693), olaparib (NSC753686), talazoparib (NSC767125), cobimetinib (NSC 768068), eltanexor (KPT-8602, NSC 794443), abemaciclib (NSC 768073), sotorasib (NSC818433), adagrasib (NSC 831453), MRTX-1133 (NSC 836407), Iadademestat (ORY1001, NSC 806812), and RMC-4630 (NSC839698), were obtained from the NCI Developmental Therapeutics Program Chemical Repository. The FDA-approved anticancer drug set is available from the Developmental Therapeutics Program at https://dtp.cancer.gov/organization/dscb/obtaining/available plates.htm. […] The stock solutions were prepared in dimethyl sulfoxide (DMSO, Sigma-Aldrich, St. Louis, MO, cat. D2650) at 800-fold the tested concentration and stored at -70 degrees C prior to their use. All drugs and investigational agents were tested over a range starting from a high concentration at or near the clinical Cmax and decreasing in half-log increments. If the clinical Cmax for an agent had not been determined, the highest concentration tested was 10 microM.
The patient-derived cancer (PDC) cell lines include five colon adenocarcinomas: 186277-243-T-J2-PDC, 616215-338-R-J1-PDC, 439559-082-T-J2-PDC, 463943-066-T-J2-PDC, and 519858-162-T-J1-PDC; three pancreatic carcinomas: 323965-272-R-J2-PDC, 521955-158-R6-J3-PDC, and 521955-158-R2-J5-PDC; two uterine sarcomas: 327498-152-R-J2-PDC and 993429-296-R-J1-PDC; two rhabdomyosarcomas: 755483-174-R-J1-PDC and 772245-204-R-J1-PDC; two soft tissue sarcomas: 126254-015-R-J1-PDC and 494315-158-R-J1-PDC; two malignant fibrous histiocytomas: 317291-083-R-J1-PDC and 596521-263-R-J1-PDC; two breast carcinomas: 171881-019-R-J1-PDC and 885512-296-R-J2-PDC; and one ovarian carcinoma: 6556581-035-R-J-PDC were obtained from the NCI PDMR, (https://pdmr.cancer.gov). The established cell lines HSSY-2 synovial sarcoma (RRID:CVCL 8719), SYO-1 synovial sarcoma (RRID:CVCL_7146), MPNST malignant peripheral neural sheath tumor were obtained from the Sloan Kettering Institute. The following established cell lines were purchased from the American Type Culture Collection (ATCC, Manassas, VA), Sor the received from the NCI repository:, PANC-1 pancreatic carcinoma (CRL-1469, RRID:CVCL_0480), OVCAR-5 ovarian carcinoma (RRID:CVCL_1628), OVCAR-8 ovarian carcinoma (RRID:CVCL_1629), , MCF-7 breast carcinoma (CRL-12584, RRID:CVCL_0031), MDA-MB-231 breast carcinoma (CRL-12532, RRID:CVCL_0062), NCI-H1876 small cell lung carcinoma (CRL-5902, RRID:CVCL_1503), NCI-H510A small cell lung carcinoma (HTB-184, RRID:CVCL_1565), NCI-H1417 (CRL-5869, RRID:CVCL_1469), and NCI-H196 small cell lung carcinoma (CRL-5823, RRID:CVCL_1509). Dr. Peter Houghton (Greehey Children's Cancer Research Institute, University of Texas Health Science Center, San Antonio, TX) provided Rh-18 rhabdomyosarcoma (RRID:CVCL_1659). Pooled donor human umbilical vein endothelial cells (HUVEC, Lonza, cat. CC-2519) and human mesenchymal stem cells (hMSC, Lonza, cat. PT-2501) were purchased from Lonza (Walkersville, MD).
Cell Culture. […]
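Note: spheroids exposed to agents for 7 days.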
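Throughout, for viability, T/C: 100% = DMSO vehicle control wells.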

- IC50 (second compound 0.03 µM): > 1000 nM
- IC50 (second compound 0.0949 µM): > 1000 nM
- IC50 (second compound 0.3 µM): 704 nM
- IC50 (second compound 0.949 µM): 24.6 nM
- IC50 (second compound 3 µM): < 3.16 nM
Compound: CCN1CCN(Cc2ccc(Nc3ncc(F)c(-c4cc(F)c5nc(C)n(C(C)C)c5c4)n3)nc2)CC1 + CCN1C(C(=O)NC23CCC(C(=O)O)(CC2)CC3)C(c2cccc(Cl)c2F)C2(C(=O)Nc3cc(Cl)ccc32)C12CCCCC2
- viability, T/C (second compound 0.03 µM, first compound 0.00316 µM): 114%
- viability, T/C (second compound 0.03 µM, first compound 0.01 µM): 130%
- viability, T/C (second compound 0.03 µM, first compound 0.0316 µM): 112%
- viability, T/C (second compound 0.03 µM, first compound 0.1 µM): 97%
- viability, T/C (second compound 0.03 µM, first compound 0.316 µM): 99.6%
- viability, T/C (second compound 0.03 µM, first compound 1 µM): 85.2%
- viability, T/C (second compound 0.0949 µM, first compound 0.00316 µM): 107%
- viability, T/C (second compound 0.0949 µM, first compound 0.01 µM): 99.8%
- viability, T/C (second compound 0.0949 µM, first compound 0.0316 µM): 89.4%
- viability, T/C (second compound 0.0949 µM, first compound 0.1 µM): 75%
- viability, T/C (second compound 0.0949 µM, first compound 0.316 µM): 82.3%
- viability, T/C (second compound 0.0949 µM, first compound 1 µM): 64.7%
- viability, T/C (second compound 0.3 µM, first compound 0.00316 µM): 68.1%
- viability, T/C (second compound 0.3 µM, first compound 0.01 µM): 74.7%
- viability, T/C (second compound 0.3 µM, first compound 0.0316 µM): 65.8%
- viability, T/C (second compound 0.3 µM, first compound 0.1 µM): 61.6%
- viability, T/C (second compound 0.3 µM, first compound 0.316 µM): 64.2%
- viability, T/C (second compound 0.3 µM, first compound 1 µM): 44.6%
- viability, T/C (second compound 0.949 µM, first compound 0.00316 µM): 49.7%
- viability, T/C (second compound 0.949 µM, first compound 0.01 µM): 52.6%
- viability, T/C (second compound 0.949 µM, first compound 0.0316 µM): 50.4%
- viability, T/C (second compound 0.949 µM, first compound 0.1 µM): 44.3%
- viability, T/C (second compound 0.949 µM, first compound 0.316 µM): 39.5%
- viability, T/C (second compound 0.949 µM, first compound 1 µM): 34.7%
- viability, T/C (second compound 3 µM, first compound 0.00316 µM): 29.1%
- viability, T/C (second compound 3 µM, first compound 0.01 µM): 31.5%
- viability, T/C (second compound 3 µM, first compound 0.0316 µM): 26.8%
- viability, T/C (second compound 3 µM, first compound 0.1 µM): 25.7%
- viability, T/C (second compound 3 µM, first compound 0.316 µM): 23.2%
- viability, T/C (second compound 3 µM, first compound 1 µM): 24.6%
